Laboratory results published in ChEMBL document CHEMBL4376834, “Discovery of 4H-Chromen-4-one Derivatives as a New Class of Selective Rho Kinase (ROCK) Inhibitors, which Showed Potent Activity in ex Vivo Diabetic Retinopathy Models” (J Med Chem, 2019).

Tests used:
[1] = target: Myosin light chain kinase, smooth muscle (Homo sapiens, UniProt Q15746); assay: Inhibition of recombinant human MLCK (1425 to 1771 residues) using […] as substrate incubated for 40 mins in presence of [gamma-33ATP by radiometric scintillation counting analysis
[2] = target: Serine/threonine-protein kinase Nek9 (Homo sapiens, UniProt Q8TD19); assay: Inhibition of recombinant human NEK9 (1 to 324 residues) using myelin basic protein as substrate measured after 40 mins in presence of [gamma33P]ATP by radiometric scintillation counting analysis
[3] = target: Serine/threonine-protein kinase 24 (Homo sapiens, UniProt Q9Y6E0); assay: Inhibition of recombinant human MST3 (1 to 304 residues) using ERMRPRKRQGSVR as substrate measured after 40 mins in presence of [gamma33P]ATP by radiometric scintillation counting analysis
[4] = Inhibition of recombinant human PKCeta V108L/G109R/L392Q triple mutant (2 to end residues) using ERMRPRKRQGSVRR as substrate incubated for 40 mins in presence of [gamma33P]ATP by radiometric scintillation counting analysis
[5] = Inhibition of human MAPK2
[6] = Inhibition of recombinant full-length human ATR/ATRIP M211T mutant using GST-cMyc-p53 as substrate incubated for 40 mins by fluorescence assay
[7] = target: Protein kinase C theta type (Homo sapiens, UniProt Q04759); assay: Inhibition of recombinant full length human PKCtheta using histone H1 as substrate incubated for 40 mins in presence of [gamma33P]ATP by radiometric scintillation counting analysis
[8] = target: Tyrosine-protein kinase BTK (Homo sapiens, UniProt Q06187); assay: Inhibition of recombinant full length human BTK using KVEKIGEGTYGVV substrate incubated for 40 mins in presence of [gamma-33ATP] by radiometric scintillation counting analysis
[9] = target: Serine/threonine-protein kinase SIK2 (Homo sapiens, UniProt Q9H0K1); assay: Inhibition of recombinant human SIK2 (1 to 276 residues) using KKKVSRSGLYRSP as substrate incubated for 40 mins in presence of [gamma33P]ATP by radiometric scintillation counting analysis
[10] = target: High affinity nerve growth factor receptor (Homo sapiens, UniProt P04629); assay: Inhibition of recombinant human TRKA (440 to end residues) using KKKSPGEYVNIEF as substrate incubated for 40 mins in presence of [gamma33P]ATP by radiometric scintillation counting analysis
[11] = target: Receptor-interacting serine/threonine-protein kinase 1 (Homo sapiens, UniProt Q13546); assay: Inhibition of recombinant human RIPK1 (8 to 322 residues) using myelin basic protein as substrate incubated for 40 mins in presence of [gamma33P]ATP by radiometric scintillation counting analysis
[12] = target: Tyrosine-protein kinase JAK2 (Homo sapiens, UniProt O60674); assay: Inhibition of human recombinant JAK2 (808 to end residues) using KTFCGTPEYLAPE as substrate after 40 mins by [gamma-33ATP] by radiometric scintillation counting analysis
[13] = target: Rho-associated protein kinase 2 (Homo sapiens, UniProt O75116); assay: Inhibition of recombinant human ROCK2 (11 to 552 residues) using KEAKEKRQEQIAKR as substrate incubated for 40 mins in presence of [gamma-33P]ATP and 10 uM ATP by radiometric scintillation counting analysis
[14] = target: Proto-oncogene tyrosine-protein kinase Src (Homo sapiens, UniProt P12931, T341M); assay: Inhibition of recombinant full length human SRC T341M mutant using GGEEEEYFELVKK as substrate incubated for 40 mins in presence of [gamma33P]ATP by radiometric scintillation counting analysis
[15] = target: ALK tyrosine kinase receptor (Homo sapiens, UniProt Q9UM73); assay: Inhibition of human recombinant ALK (1058 to end residues) using KKKSPGEYVNIEF as substrate incubated for 40 mins in presence of [gamma-33P]ATP by radiometric scintillation counting analysis
[16] = target: Dual specificity tyrosine-phosphorylation-regulated kinase 1B (Homo sapiens, UniProt Q9Y463); assay: Inhibition of recombinant full length human DYRK1B using RRRFRPASPLRGPP as substrate after 40 mins in presence of [gamma-33ATP] by radiometric scintillation counting analysis
[17] = target: Hepatocyte growth factor receptor (Homo sapiens, UniProt P08581, Y1230C); assay: Inhibition of recombinant human MET A1209G/V1290L/Y1248C triple mutant (974 to end residues) using KKKGQEEEYVFIE as substrate incubated for 40 mins in presence of [gamma-33ATP by radiometric scintillation counting analysis
[18] = target: Serine/threonine-protein kinase Chk2 (Homo sapiens, UniProt O96017); assay: Inhibition of recombinant human CHK2 (5 to end residues) using KKKVSRSGLYRSP as substrate incubated for 40 mins in presence of [gamma-33ATP] by radiometric scintillation counting analysis
[19] = target: Serine/threonine-protein kinase MRCK beta (Homo sapiens, UniProt Q9Y5S2); assay: Inhibition of recombinant human MRCKbeta (1 to 473 residues) using KKRNRTLTV as substrate incubated for 40 mins in presence of [gamma-33ATP by radiometric scintillation counting analysis
[20] = target: Ribosomal protein S6 kinase alpha-1 (Homo sapiens, UniProt Q15418); assay: Inhibition of recombinant full length human Rsk1 using KKKNRTLSVA as substrate incubated for 40 mins in presence of [gamma33P]ATP by radiometric scintillation counting analysis
[21] = target: RAF proto-oncogene serine/threonine-protein kinase (Homo sapiens, UniProt P04049, Y340D/Y341D); assay: Inhibition of recombinant human C-Raf Y340D/Y341D double mutant (306 to end residues) using poly(Glu, Tyr) 4:1 as substrate incubated 40 mins in presence of [gamma-33ATP] by radiometric scintillation counting analysis
[22] = target: Serine/threonine-protein kinase PLK3 (Homo sapiens, UniProt Q9H4B4); assay: Inhibition of recombinant human Plk3 (19 to 301 residues) using casein as substrate incubated for 40 mins in presence of [gamma33P]ATP by radiometric scintillation counting analysis
[23] = target: Ribosomal protein S6 kinase alpha-5 (Homo sapiens, UniProt O75582); assay: Inhibition of recombinant human MSK1 (2 to end residues) using GRPRTSSFAEGKK as substrate incubated for 40 mins in presence of [gamma-33ATP by radiometric scintillation counting analysis
[24] = target: Homeodomain-interacting protein kinase 3 (Homo sapiens, UniProt Q9H422); assay: Inhibition of human recombinant HIPK3 (161 to 562 residues) using myelin basic protein as substrate after 40 mins by [gamma-33ATP] radiometric assay
[25] = target: Tyrosine-protein kinase JAK1 (Homo sapiens, UniProt P23458); assay: Inhibition of human recombinant JAK1 (866 to end residues) using GEEPLYWSFPAKK as substrate after 40 mins by [gamma-33ATP] by radiometric scintillation counting analysis
[26] = target: Serine/threonine-protein kinase 25 (Homo sapiens, UniProt O00506); assay: Inhibition of recombinant human STK25 (1 to 308 residues) using RLGRDKYKTLRQI as substrate incubated for 40 mins in presence of [gamma33P]ATP by radiometric scintillation counting analysis

Serine/threonine-protein kinase 24, sequence (Q9Y6E0 whole entry, the tested form may be a part): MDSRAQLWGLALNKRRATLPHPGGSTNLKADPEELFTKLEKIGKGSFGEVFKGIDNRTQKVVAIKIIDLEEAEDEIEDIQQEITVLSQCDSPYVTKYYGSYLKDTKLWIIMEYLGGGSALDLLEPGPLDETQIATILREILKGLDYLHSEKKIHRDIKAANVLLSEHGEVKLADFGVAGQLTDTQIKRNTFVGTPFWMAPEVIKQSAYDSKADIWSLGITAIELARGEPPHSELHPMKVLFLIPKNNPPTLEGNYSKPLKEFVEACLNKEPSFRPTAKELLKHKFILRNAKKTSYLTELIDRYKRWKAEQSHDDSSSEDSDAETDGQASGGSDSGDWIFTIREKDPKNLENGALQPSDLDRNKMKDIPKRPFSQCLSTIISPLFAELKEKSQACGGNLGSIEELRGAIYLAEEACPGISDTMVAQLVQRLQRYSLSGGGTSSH
Ribosomal protein S6 kinase alpha-1, sequence (Q15418 whole entry): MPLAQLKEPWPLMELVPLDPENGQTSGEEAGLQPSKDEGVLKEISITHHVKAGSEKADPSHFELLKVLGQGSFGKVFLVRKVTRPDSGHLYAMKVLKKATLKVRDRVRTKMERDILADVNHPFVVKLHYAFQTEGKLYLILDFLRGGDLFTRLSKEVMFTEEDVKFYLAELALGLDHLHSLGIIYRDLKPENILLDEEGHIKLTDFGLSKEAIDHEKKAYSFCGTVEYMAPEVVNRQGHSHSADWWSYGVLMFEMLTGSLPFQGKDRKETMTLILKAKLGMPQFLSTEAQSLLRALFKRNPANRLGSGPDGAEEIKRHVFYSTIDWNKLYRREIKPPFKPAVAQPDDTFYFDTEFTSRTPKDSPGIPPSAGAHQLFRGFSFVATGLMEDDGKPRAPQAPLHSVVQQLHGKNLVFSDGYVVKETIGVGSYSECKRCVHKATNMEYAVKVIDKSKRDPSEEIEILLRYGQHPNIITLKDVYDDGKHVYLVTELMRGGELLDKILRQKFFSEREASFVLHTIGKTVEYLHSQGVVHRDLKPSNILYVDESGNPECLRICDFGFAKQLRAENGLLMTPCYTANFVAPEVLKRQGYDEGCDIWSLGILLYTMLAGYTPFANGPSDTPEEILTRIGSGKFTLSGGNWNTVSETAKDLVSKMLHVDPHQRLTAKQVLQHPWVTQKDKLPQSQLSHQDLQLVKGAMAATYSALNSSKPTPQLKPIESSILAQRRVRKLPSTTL
Myosin light chain kinase, smooth muscle, sequence (Q15746 whole entry, the tested form may be a part): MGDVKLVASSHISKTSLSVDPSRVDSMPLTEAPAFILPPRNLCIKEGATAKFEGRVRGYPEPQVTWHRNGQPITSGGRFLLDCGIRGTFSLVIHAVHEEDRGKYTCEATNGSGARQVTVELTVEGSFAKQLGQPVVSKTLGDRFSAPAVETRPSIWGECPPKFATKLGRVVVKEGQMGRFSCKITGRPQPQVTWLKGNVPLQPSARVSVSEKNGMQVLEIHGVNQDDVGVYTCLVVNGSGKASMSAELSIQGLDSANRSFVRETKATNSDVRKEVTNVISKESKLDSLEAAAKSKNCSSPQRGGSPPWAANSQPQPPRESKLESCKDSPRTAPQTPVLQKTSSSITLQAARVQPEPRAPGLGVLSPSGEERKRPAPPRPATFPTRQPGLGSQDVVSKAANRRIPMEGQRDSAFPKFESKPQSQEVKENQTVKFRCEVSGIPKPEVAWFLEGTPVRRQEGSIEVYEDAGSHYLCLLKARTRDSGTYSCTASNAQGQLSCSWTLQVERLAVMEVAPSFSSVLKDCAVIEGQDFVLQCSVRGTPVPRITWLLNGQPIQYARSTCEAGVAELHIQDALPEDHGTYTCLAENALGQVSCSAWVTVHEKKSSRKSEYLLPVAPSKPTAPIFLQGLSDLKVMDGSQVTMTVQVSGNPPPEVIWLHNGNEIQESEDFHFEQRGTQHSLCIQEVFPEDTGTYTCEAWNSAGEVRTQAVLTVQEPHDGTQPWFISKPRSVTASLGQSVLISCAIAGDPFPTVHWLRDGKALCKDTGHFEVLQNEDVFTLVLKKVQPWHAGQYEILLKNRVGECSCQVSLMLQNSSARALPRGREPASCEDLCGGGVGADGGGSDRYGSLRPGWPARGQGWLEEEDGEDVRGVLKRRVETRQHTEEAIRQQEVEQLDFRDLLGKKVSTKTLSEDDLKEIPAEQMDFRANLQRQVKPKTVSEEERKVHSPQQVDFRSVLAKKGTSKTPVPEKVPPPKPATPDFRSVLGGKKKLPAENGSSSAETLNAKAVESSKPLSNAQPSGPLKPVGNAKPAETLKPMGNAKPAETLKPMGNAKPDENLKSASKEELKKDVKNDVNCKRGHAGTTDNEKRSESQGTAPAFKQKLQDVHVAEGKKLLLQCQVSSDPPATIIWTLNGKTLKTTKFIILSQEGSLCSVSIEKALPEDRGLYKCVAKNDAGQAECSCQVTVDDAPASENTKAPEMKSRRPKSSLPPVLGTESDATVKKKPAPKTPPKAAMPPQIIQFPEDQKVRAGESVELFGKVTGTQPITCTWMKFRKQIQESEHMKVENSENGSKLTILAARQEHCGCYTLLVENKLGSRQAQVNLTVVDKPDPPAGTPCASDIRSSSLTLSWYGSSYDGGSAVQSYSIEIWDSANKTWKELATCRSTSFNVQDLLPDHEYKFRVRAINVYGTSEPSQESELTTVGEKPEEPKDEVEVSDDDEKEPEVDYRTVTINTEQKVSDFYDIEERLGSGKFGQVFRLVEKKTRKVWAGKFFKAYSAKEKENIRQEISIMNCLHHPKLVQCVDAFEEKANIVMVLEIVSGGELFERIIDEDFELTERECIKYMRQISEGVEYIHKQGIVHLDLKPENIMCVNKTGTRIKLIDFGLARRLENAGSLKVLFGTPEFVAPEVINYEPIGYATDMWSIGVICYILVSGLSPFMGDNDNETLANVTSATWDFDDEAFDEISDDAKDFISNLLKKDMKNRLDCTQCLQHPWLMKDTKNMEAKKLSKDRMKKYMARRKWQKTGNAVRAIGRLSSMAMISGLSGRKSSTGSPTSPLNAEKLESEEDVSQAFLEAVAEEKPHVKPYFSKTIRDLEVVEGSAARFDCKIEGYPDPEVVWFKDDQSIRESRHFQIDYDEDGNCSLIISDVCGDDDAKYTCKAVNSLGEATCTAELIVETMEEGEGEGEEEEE
ALK tyrosine kinase receptor, sequence (Q9UM73 whole entry): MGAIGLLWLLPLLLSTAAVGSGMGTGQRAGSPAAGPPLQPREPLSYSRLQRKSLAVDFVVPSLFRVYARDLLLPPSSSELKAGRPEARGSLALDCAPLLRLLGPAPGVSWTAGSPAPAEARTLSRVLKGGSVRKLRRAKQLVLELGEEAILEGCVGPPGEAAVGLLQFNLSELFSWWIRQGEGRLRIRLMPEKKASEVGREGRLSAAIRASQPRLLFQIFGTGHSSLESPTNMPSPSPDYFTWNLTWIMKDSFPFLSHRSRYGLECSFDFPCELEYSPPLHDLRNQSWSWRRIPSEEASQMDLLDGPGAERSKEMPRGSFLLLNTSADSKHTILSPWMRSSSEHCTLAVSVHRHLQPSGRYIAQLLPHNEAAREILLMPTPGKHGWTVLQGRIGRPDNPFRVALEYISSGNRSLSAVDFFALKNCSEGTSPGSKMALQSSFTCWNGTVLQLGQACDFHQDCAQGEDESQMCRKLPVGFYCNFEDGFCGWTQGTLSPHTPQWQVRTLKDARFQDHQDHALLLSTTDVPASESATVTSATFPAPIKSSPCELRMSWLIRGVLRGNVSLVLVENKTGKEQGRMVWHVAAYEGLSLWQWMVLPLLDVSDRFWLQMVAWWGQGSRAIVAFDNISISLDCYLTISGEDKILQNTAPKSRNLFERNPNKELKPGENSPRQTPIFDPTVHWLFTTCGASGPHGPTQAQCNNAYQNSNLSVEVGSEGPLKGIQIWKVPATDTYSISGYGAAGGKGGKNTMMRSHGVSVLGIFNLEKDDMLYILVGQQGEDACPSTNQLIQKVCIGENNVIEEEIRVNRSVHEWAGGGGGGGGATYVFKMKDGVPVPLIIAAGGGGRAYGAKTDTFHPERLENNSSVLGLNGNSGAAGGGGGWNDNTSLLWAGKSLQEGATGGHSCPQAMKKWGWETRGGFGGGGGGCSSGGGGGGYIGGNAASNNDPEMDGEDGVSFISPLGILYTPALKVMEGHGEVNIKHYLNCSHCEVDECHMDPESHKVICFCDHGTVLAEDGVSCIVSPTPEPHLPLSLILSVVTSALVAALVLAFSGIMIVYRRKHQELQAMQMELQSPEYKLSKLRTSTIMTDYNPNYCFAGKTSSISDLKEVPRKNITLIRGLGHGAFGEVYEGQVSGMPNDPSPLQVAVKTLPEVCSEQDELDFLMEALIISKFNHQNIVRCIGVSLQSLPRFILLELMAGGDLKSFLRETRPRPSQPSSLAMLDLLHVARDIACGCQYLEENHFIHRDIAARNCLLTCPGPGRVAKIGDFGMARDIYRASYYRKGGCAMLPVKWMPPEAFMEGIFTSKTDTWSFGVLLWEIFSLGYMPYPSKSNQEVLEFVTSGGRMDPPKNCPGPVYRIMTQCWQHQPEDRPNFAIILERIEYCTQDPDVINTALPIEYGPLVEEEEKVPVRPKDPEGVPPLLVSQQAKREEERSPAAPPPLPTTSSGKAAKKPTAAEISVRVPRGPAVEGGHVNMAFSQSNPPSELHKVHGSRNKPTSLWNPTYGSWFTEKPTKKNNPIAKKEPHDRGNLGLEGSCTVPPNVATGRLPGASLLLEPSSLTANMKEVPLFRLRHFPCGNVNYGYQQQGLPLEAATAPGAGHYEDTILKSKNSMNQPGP

For CN(C)c1ccc(C(=O)Nc2cccc(NC(=O)COc3ccc4c(=O)ccoc4c3)c2)cc1, the IC50 [1] was > 10 µM, the IC50 [2] was > 10 µM and the IC50 [3] was > 10 µM. The IC50 [4] was > 10 µM, the IC50 [5] was > 10 µM and the IC50 [6] was > 10 µM. For the same compound, the IC50 [7] was > 10 µM, the IC50 [8] was > 10 µM and the IC50 [9] was > 10 µM. The IC50 [10] was > 10 µM, the IC50 [11] was > 10 µM and the IC50 [12] was > 10 µM. For the same compound, the IC50 [13] was 0.003 µM, the IC50 [14] was > 10 µM and the IC50 [15] was > 10 µM. The IC50 [16] was > 10 µM, the IC50 [17] was > 10 µM and the IC50 [18] was > 10 µM. For the same compound, the IC50 [19] was > 10 µM, the IC50 [20] was > 10 µM and the IC50 [21] was > 10 µM. The IC50 [22] was > 10 µM, the IC50 [23] was > 10 µM and the IC50 [24] was > 10 µM. The IC50 [25] was > 10 µM and the IC50 [26] was > 10 µM.
